Measured values reported in US20010003744A1, “Therapeutic compounds” (priority 1994, published 2001).

How the values were obtained:
[1] = system: HCMV strain AD169; assay: Human Cytomegalovirus (HCMV) assay, HCMV DNA hybridization; assay type: cell-based; conditions: HCMV strain AD169 on MRC5 cells, 5 days, HCMV DNA by blotting and hybridization
Experimental: (§1) HCMV strain AD169 was grown on monolayers of human embryonic lung cells (MRC5 cells) in 96 well plates. After infection of the cells at a ratio of approximately 0.01 infectious virus particles per cell, the compounds to be tested were added to selected wells at six different concentrations, each in triplicate. The same concentrations of compound were also applied to wells containing monolayers of uninfected cells in order to assess compound cytotoxicity. The plates were incubated for 5 days, and the minimum cytotoxic dose was estimated from microscopic examination. The IC50 for antiviral effect was estimated from measurements of HCMV DNA in each well by blotting and quantitive specific DNA hybridization, similar to the method of Gadler. (Antimicrob. Agents Chemother. 1983, 24, 370-374).

[2] = Compound cytotoxicity on uninfected MRC5 monolayers, microscopic examination; assay type: cell-based, human; conditions: human, uninfected MRC5 cell monolayers (human embryonic lung cells); uninfected MRC5 cells, 5 days, estimated from microscopic examination; read-out: MRC5 tox CC50
Experimental: as §1

[3] = system: MRC5 cells; assay: as above; assay type: cell-based, human
Experimental: as §1

Structure (SMILES): CC(=O)OC[C@@H]1O[C@H](n2c(Br)nc3cc(Cl)c(Cl)cc32)[C@@H](OC(C)=O)[C@H]1OC(C)=O [Example 1, 2-Bromo-5,6-dichloro-1-(2,3,5-tri-O-acetyl-beta-L-ribofuranosyl)-1H-benzimidazole]
- melting point: < 65 °C

Structure (SMILES): OC[C@@H]1O[C@H](n2c(Br)nc3cc(Cl)c(Cl)cc32)[C@@H](O)[C@H]1O [Example 2, 2-Bromo-5,6-dichloro-1-(beta-L-ribofuranosyl)-1H-benzimidazole]
- melting point: 169 °C

Structure (SMILES): C=CCNc1nc2cc(Cl)c(Cl)cc2n1[C@H]1O[C@@H](CO)[C@H](O)[C@@H]1O [Example 4, 2-(Allylamino)-5,6-dichloro-1-(beta-L-ribofuranosyl)-1H-benzimidazole]
- IC50 ([1]; Human betaherpesvirus 5, 120 h): 0.91 to 2.5 µM
- CC50 at 5 days [2]: 100 µM
- melting point: 220 °C (dec.)

Structure (SMILES): CC(C)Nc1nc2cc(Cl)c(Cl)cc2n1[C@H]1O[C@@H](CO)[C@H](O)[C@@H]1O [Example 5, 5,6-Dichloro-2-(isopropylamino)-1-(beta-L-ribofuranosyl)-1H-benzimidazole]
- IC50 ([1]; Human betaherpesvirus 5, 120 h): 0.03 to 0.05 µM
- CC50 at 5 days [2]: 100 µM

Structure (SMILES): OC[C@@H]1O[C@H](n2c(NC3CCCC3)nc3cc(Cl)c(Cl)cc32)[C@@H](O)[C@H]1O [Example 6, 2-(Cyclopentylamino)-5,6-dichloro-1-(beta-L-ribofuranosyl)-1H-benzimidazole]
- melting point: 140 °C

Structure (SMILES): OC[C@@H]1O[C@H](n2c(NCc3ccccc3)nc3cc(Cl)c(Cl)cc32)[C@@H](O)[C@H]1O [Example 7, 2-(Benzylamino)-5,6-dichloro-1-(beta-L-ribofuranosyl)-1H-benzimidazole]
- melting point: 123 °C

Structure (SMILES): OC[C@@H]1O[C@H](n2c(N3CCC3)nc3cc(Cl)c(Cl)cc32)[C@@H](O)[C@H]1O [Example 8, 2-Azetidino-5,6-dichloro-1-(beta-L-ribofuranosyl)-1H-benzimidazole]
- IC50 [1]: 41 µM
- CC50 [3]: 100 µM

Structure (SMILES): C#CCNc1nc2cc(Cl)c(Cl)cc2n1[C@H]1O[C@@H](CO)[C@H](O)[C@@H]1O [Example 9, 5,6-Dichloro-2-(propargylamino)-1-(beta-L-ribofuranosyl)-1H-benzimidazole]
- melting point: 182 to 184 °C

Structure (SMILES): CCCNc1nc2cc(Cl)c(Cl)cc2n1[C@H]1O[C@@H](CO)[C@H](O)[C@@H]1O [Example 10, 5,6-Dichloro-2-(n-propylamino)-1-(beta-L-ribofuranosyl)-1H-benzimidazole]
- IC50 ([1]; Human betaherpesvirus 5, 120 h): 1.1 to 1.3 µM
- CC50 at 5 days [2]: 100 µM
- melting point: 231 to 233 °C

Structure (SMILES): CC(C)CNc1nc2cc(Cl)c(Cl)cc2n1[C@H]1O[C@@H](CO)[C@H](O)[C@@H]1O [Example 11, 5,6-Dichloro-2-(isobutylamino)-1-(beta-L-ribofuranosyl)-1H-benzimidazole]
- melting point: 136 °C

Structure (SMILES): OCCNc1nc2cc(Cl)c(Cl)cc2n1[C@H]1O[C@@H](CO)[C@H](O)[C@@H]1O [Example 12, 2-((5,6-Dichloro-1-(beta-L-ribofuranosyl)-1H-benzimidazol-2-yl)amino)ethanol]
- IC50 ([1]; Human betaherpesvirus 5, 120 h): 3.5 to 5.8 µM
- CC50 at 5 days [2]: 100 µM

Structure (SMILES): CCCCNc1nc2cc(Cl)c(Cl)cc2n1[C@H]1O[C@@H](CO)[C@H](O)[C@@H]1O [Example 18, 2-(n-Butylamino)-5,6-dichloro-1-(beta-L-ribofuranosyl)-1H-benzimidazole]
- melting point: 220 to 222 °C

Structure (SMILES): CCC(C)Nc1nc2cc(Cl)c(Cl)cc2n1[C@H]1O[C@@H](CO)[C@H](O)[C@@H]1O (stereo partly drawn) [Example 19, 2-(sec-Butylamino)-5,6-dichloro-1-(beta-L-ribofuranosyl)-1H-benzimidazole]
- melting point: 121 to 122 °C

Structure (SMILES): OC[C@@H]1O[C@H](n2c(NC3CCC3)nc3cc(Cl)c(Cl)cc32)[C@@H](O)[C@H]1O [Example 20, 2-(Cyclobutylamino)-5,6-dichloro-1-(beta-L-ribofuranosyl)-1H-benzimidazole]
- melting point: 220 to 221 °C

Structure (SMILES): OC[C@@H]1O[C@H](n2c(NCCN3CCCC3)nc3cc(Cl)c(Cl)cc32)[C@@H](O)[C@H]1O [Example 22, 5,6-Dichloro-2-((2-(1-pyrrolidinyl)ethyl)amino)-1-(beta-L-ribofuranosyl)-1H-benzimidazole]
- melting point: 123 to 124 °C

Structure (SMILES): OC[C@@H]1O[C@H](n2c(NCC3CC3)nc3cc(Cl)c(Cl)cc32)[C@@H](O)[C@H]1O [Example 23, 2-((Cyclopropylmethyl)amino)-5,6-dichloro-1-(beta-L-ribofuranosyl)-1H-benzimidazole]
- melting point: 229 to 230 °C

Structure (SMILES): CC(C)(C)Nc1nc2cc(Cl)c(Cl)cc2n1[C@H]1O[C@@H](CO)[C@H](O)[C@@H]1O [Example 24, 2-(tert-Butylamino)-5,6-dichloro-1-(beta-L-ribofuranosyl)-1H-benzimidazole]
- melting point: 118 to 120 °C

Structure (SMILES): CC(C)(C)Nc1nc2cc(Cl)c(Cl)cc2[nH]1 [Example 26, 2-(tert-Butylamino)-5,6-dichloro-1H-benzimidazole]
- melting point: 219 to 221 °C

Structure (SMILES): Nc1nc2cc(Cl)c(Cl)cc2n1[C@H]1O[C@@H](CO)[C@H](O)[C@@H]1O [Example 27, 2-Amino-5,6-dichloro-1-(beta-L-ribofuranosyl)-1H-benzimidazole]
- melting point: 110 to 112 °C

Structure (SMILES): CNc1nc2cc(Cl)c(Cl)cc2n1[C@H]1O[C@@H](CO)[C@H](O)[C@@H]1O [Example 33, 5,6-Dichloro-2-(methylamino)-1-(beta-L-ribofuranosyl)-1H-benzimidazole]
- melting point: 238 to 240 °C

Structure (SMILES): CCNc1nc2cc(Cl)c(Cl)cc2n1[C@H]1O[C@@H](CO)[C@H](O)[C@@H]1O [Example 34, 5,6-Dichloro-2-(ethylamino)-1-(beta-L-ribofuranosyl)-1H-benzimidazole]
- IC50 ([1]; Human betaherpesvirus 5, 120 h): 0.75 to 0.85 µM
- CC50 at 5 days [2]: 100 µM
- melting point: 155 to 157 °C

Structure (SMILES): OC[C@@H]1O[C@@H](n2c(NC3CC3)nc3cc(Cl)c(Cl)cc32)[C@@H](O)[C@H]1O [Example 35, 2-Cyclopropylamino-5,6-dichloro-1-(alpha-L-ribofuranosyl)-1H-benzimidazole]
- melting point: 140 to 141 °C
